Data published in patent publication US11632953B2, “Method for controlling hematophagous or sap-feeding arthropods” (Board of Supervisors of Louisiana State University and …, priority 2016, dated 2023).
pEC50, pIC50: −log10 of the molar value. Converted amounts (≈) assume the structure as drawn. “Also recorded” adds a separate entry of the source.

Experiments:
[1] = system: Aphis gossypii; test: aphid feeding on treated cotton leaves, electrophenegraph technique; assay type: in vivo; conditions: barium chloride at 300 micromolar
Method: FIGS. 14(A) and (B) depict measurements of aphid (Aphis gossypi) feeding on cotton leaves, as measured through the electrophenegraph technique; on control leaves and on leaves treated with the Kir inhibitor barium, respectively.
In aphids, a specific Kir channel blocker (barium chloride at 300 micromolar) was coated onto leaf tissue, and the feeding behavior of the adult aphid was analyzed through the classical electrophenegraph technique.

[2] = solubility limit in feeding solution
[3] = target: AnKir1 (Anopheles gambiae, UniProt A0A075M2J8); test: whole-cell patch clamp electrophysiology; assay type: cell-based
AnKir1, sequence (A0A075M2J8 1-555): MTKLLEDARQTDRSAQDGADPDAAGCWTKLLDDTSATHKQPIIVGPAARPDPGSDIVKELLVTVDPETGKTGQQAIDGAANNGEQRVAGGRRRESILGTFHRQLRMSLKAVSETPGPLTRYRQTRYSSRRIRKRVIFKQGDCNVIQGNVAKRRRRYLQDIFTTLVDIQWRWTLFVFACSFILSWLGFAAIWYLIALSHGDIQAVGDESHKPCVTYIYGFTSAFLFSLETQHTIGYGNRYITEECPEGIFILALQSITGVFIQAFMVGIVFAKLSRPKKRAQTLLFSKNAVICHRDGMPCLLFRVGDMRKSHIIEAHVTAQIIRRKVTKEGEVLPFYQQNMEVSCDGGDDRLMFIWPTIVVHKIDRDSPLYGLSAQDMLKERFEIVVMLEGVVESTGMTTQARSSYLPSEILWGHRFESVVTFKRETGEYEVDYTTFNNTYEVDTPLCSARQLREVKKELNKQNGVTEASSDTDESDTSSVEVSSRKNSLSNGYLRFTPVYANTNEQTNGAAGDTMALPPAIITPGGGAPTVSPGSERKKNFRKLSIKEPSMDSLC
Method: Patch electrodes were pulled from silanized 1.5 mm outer diameter borosilicate microhematocrit tubes using a P-1000 Flaming/Brown micropipette puller (Sutter Instrument, Novato Calif., USA). Electrode resistance ranged from 2-4 MΩ. Whole-cell currents were recorded under voltage-clamp conditions using an Axopatch 200B amplifier (Molecular Devices, Sunnyvale, Calif.). Electrical connections to the amplifier used Ag/AgCl wires and 3 M KCl/agar bridges. Electrophysiological data were collected at 5 kHz and filtered at 1 kHz. Data acquisition and analysis were performed using pClamp 9.2 software (Axon Instruments).
Transiently transfected HEK-293T cells expressing AnKir1 were voltage-clamped in the whole-cell configuration of the patch clamp technique. The extracellular bath solution contained (in mM): 135 NaCl, 5 KCl, 2 CaCl2), 1 MgCl2, 5 glucose, 10 HEPES free acid, pH 7.4, 290 mOsm/kg H2O. The pipette solution contained (in mM): 135 KCl, 2 MgCl2, 1 EGTA, 10 HEPES free acid, 2 Na2ATP (Roche, Indianapolis, Ind.), pH 7.3, 275 mOsm. Cells were voltage clamped at −75 mV, stepped to −120 mV for 200 msec, and then ramped to 120 mV at a rate of 2.4 mV/msec. Concentration-response curves (CRCs) were constructed by measuring the effects of increasing doses of inhibitors on AnKir1 currents at −120 mV. All recordings were made at room temperature (20-23° C.).

[4] = system: An. gambiae; test: blood meal processing, abdominal diameter; assay type: in vivo, Anopheles gambiae; conditions: topical, ED30 dose of VU041 after engorgement
Method: Blood meal processing studies were performed with similar methods, with the exception that An. gambiae were blood-fed on anesthetized mice. All methods were carried out in accordance with Vanderbilt Institutional Animal Care and Use Committee approval. Upon completion of blood feeding, female mosquitoes with fully distended abdomens were selected, and 200 nL of compound at a non-lethal concentration (1 μg/mg) was applied directly to the abdomen. Any mosquito that died during the 24 h observation period was excluded from the analysis. Images of the abdomens were acquired at 0, 2, 5, 8, and 24 h through the dorsal cuticle; abdomens were measured at the widest point. Images were captured using bright-field illumination on a Nikon 90i light microscope (Nikon Corp., Tokyo, Japan) connected to a Photometrics CoolSNAP HQ2 high-sensitivity monochrome CCD camera (Roper Scientific, Ottobrunn, Germany). Digital images were acquired using Nikon Advanced Research NIS-Elements software. Mean abdominal diameters were compared using one-way ANOVA with a Tukey's post-hoc analysis (Prism 6, Graphpad Software, La Jolla, Calif.).

[5] = system: Drosophila melanogaster; test: whole plant or invertebrate; conditions: for mortality in CAFE assay: 200 μM VU041, 700 μM VU937; for reduction of total volume of sucrose solution ingested: 100 μM fluphenazine, 200 μM VU041
Method: A capillary feeding assay (CAFE) was used to quantify the volume of sucrose solution consumed over a period of time; it was performed essentially as described in W. W. Ja, G. B. Carvalho, E. M. Mak, N. N. de la Rosa, A. Y. Fang, J. C. Liong, T. Brummel, S. Benzer, Prandiology of Drosophila and the CAFE assay. Proceedings of the National Academy of Sciences of the United States of America 104, 8253-8256 (2007); published online EpubMay 15 (10.1073/pnas.0702726104). […] One adult fly was placed into a 2 mL glass vial with a screw lid that was pierced with a glass microcapillary tube having a truncated 200-0 pipette tip. The microcapillary tubes contained 5% (wt/vol) sucrose solution with a 5 μl mineral oil overlay to minimize evaporation. […] Concentrations of 100 μM dopamine and 100 μM fluphenazine were used to determine the influence of those agents on fly feeding. […] All dead flies were excluded from all time points of the study regardless of the time of death. Mean (n>25) values are shown in all figure panels, depicting total consumption.
Times spent feeding in Kir1 and GFP genetic knockdown studies were compared to control values for each day using one-way ANOVA with a Dunns multiple comparisons post-test. Statistical significance for all studies was P<0.05.

[6] = system: Ae. aegypti; test: topical toxicity bioassay in adult female Ae. aegypti; assay type: in vivo, Aedes aegypti; conditions: 24 h
Method: Topical toxicity bioassays in adult female Ae. aegypti (LVP and PR strains) were performed. […] A solvent-only treatment was included in each experiment as a negative control. Treated mosquitoes were transferred to small cages with access to 10% sucrose and held under rearing conditions for 24 h. The efficacy of a dose was measured as the percentage of treated mosquitoes in a cage that were flightless or dead at 24 h. Four to eight replicates of 10 mosquitoes were performed per dose. The ED50 values were determined using a non-linear curve fit analysis (log [inhibitor] vs. response variable-slope) in Prism 6 (Graphpad Software).
Six replicate experiments of 10 mosquitoes each were performed.

[7] = system: An. gambiae; test: topical toxicity bioassay in adult female An. gambiae; assay type: in vivo, Anopheles gambiae; conditions: for ED50 (95% confidence limits), Akron Strain / ED50 (95% confidence limits), G3 Strain: topical, synergists 500 ng/insect four hours prior
Method: Topical toxicity bioassays were performed on non-blood-fed adult female mosquitoes. The mosquitoes were chilled on ice for 1-3 minutes, during which 200 nL of compound (dissolved in 95% ethanol) was applied onto the abdomen of each insect with a handheld Hamilton® micro-applicator. […] […] The three resulting ED50 values were averaged. An ethanol-only treatment was included in each experiment as a negative control. Treated mosquitoes were transferred to small cages with access to 10% sucrose and held under rearing conditions for 24 h. Mortality was recorded at 24 h.

[8] = whole-cell patch clamp, HEK-293T cells

O=C(Cn1nc(C(F)(F)F)c2c1CCCC2)N1CCCc2ccccc21 [VU041, 1-(3,4-dihydroquinolin-1(2H)-yl)-2-(3-(trifluoromethyl)-4,5,6,7-tetrahydro-1H-indazol-1-yl)ethan-1-one]
feeding phases (egestion, salivation, ingestion) [1]: No salivation was observed; also recorded: essentially completely inhibited egestion, salivation, and ingestion
solubility ([2]; 5% (wt/vol) sucrose solution, water): 200 µM (≈ 72.7 µg/mL)
Hill coefficient value ([3]; whole-cell patch clamp): 1.3
pIC50 [3, 8]: 6.30
abdominal diameter over 24 h after blood feeding [4]: did not thereafter change much
mortality in CAFE assay [5]: approximately 30%
reduction of total volume of sucrose solution ingested ([5]; 1 day PE): 2.6 fold
reduction of total volume of sucrose solution ingested ([5]; 2 days PE): 2.7 fold
reduction of total volume of sucrose solution ingested ([5]; 3 days PE): 2.9 fold
reduction of total volume of sucrose solution ingested ([5]; 4 days PE): 3.2 fold
pEC50 ([5]; Drosophila melanogaster, 96 h, read-out: EC50 of reduction of sucrose consumption): 4.17
maximal reduction of volume of sucrose consumption ([5]; concentration-dependent): up to 3.2 fold
approximate ED50 ([6]; topical, LVP strain): ~3.24 μg/mg mosquito
enhancement of toxicity by inhibition of CYP450s in the AKRON strain over the G3 strain ([7]; Akron strain): 3 fold
enhancement of efficacy by PBO pretreatment ([7]; G3 strain): ~3 fold
enhancement of toxicity by DEF pre-treatment ([7]; G3 strain): did not enhance toxicity
ED50 (95% confidence limits), Akron Strain ([7]; 24 h, Akron strain): 2.8 (2.1-4.1) A μg/mg
ED50 (95% confidence limits), G3 Strain ([7]; 24 h, G3 strain): 1.8 (0.9-3.1) A μg/mg

O=C(Cn1nc(C(F)(F)F)c2c1CCCC2)NC1CCC1 [VU937]
feeding phases (egestion, salivation, ingestion) [1]: fed normally; also recorded: did not affect feeding
solubility limit ([2]; 5% sucrose solution): 700 µM (≈ 211 µg/mL)
activity less than VU041 ([3]; patch clamp): 60 fold
pIC50 ([3]; whole-cell patch clamp): 4.53
pIC50 [3, 8]: 4.53
abdominal diameter over 24 h after blood feeding [4]: decreased significantly over 24 h
mortality in CAFE assay [5]: less than 10%
topical toxicity ([6]; adult females): not toxic
topical toxicity ([7]; adult females, 24 h): not toxic
ED50 (95% confidence limits), Akron Strain ([7]; 24 h, Akron strain): >10 µg/mg
ED50 (95% confidence limits), G3 Strain ([7]; 24 h, G3 strain): >10 µg/mg
